The values below come from patent publication US20230416238A1, “N-[(1,3-BENZOXAZOL-2-YL)-HETEROCYCLE]AMIDE DERIVATIVES FOR THE TREATMENT AND PROPHYLAXIS OF HEPATITIS B VIRUS INFECTION” (Hoffmann-La Roche Inc., priority 2020, published 2023).

Format in all cases: cell-based
One data set deals with HBeAg. Description: PHH HBV natural infection assay, HBeAg (alphalisa). To be noted: Hepatitis B virus, Hepatocyte, read-out: HBeAg IC50. The method in brief:
(§1)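 Primary human hepatocytes infected with HBV at 200 GE/cell plus 4% PEG8000 for 24 h, then sandwich-cultured 72 h in medium with 1% DMSO. Compound applied twice at 72-h intervals; supernatant HBsAg and HBeAg quantified by AlphaLISA.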
For orientation: Bead proximity is the source of the signal in Alpha formats.

Data set [1] in a line: Cytotoxicity in PHH natural infection assay (Cell Counting Kit-8). Particulars: HBV-infected primary human hepatocytes, CCK8. The method in brief:
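HBV-infected primary human hepatocytes (200 GE/cell, 4% PEG8000, 24 h), then sandwich-cultured 72 h. Cells dosed at varying concentrations for two 72-hour cycles, with medium refreshed. Cytotoxicity read by CCK-8 at end of treatment.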

The subject of the next data set is HBsAg. The data set can be described thus: PHH HBV natural infection assay, HBsAg (alphalisa). To be noted: Hepatitis B virus, Hepatocyte, read-out: HBsAg IC50. The method in brief:
as §1

As for `O=C(NC1CC2(CCN(c3nc4cc(Cl)ccc4o3)C2)C1)C1CCS(=O)(=O)C1` (stereo not drawn) [Example 71, N-[6-(5-chloro-1,3-benzoxazol-2-yl)-6-azaspiro[3.4]octan-2-yl]-1,1-dioxo-thiolane-3-carboxamide], the IC50 (as a rule, the midpoint of a concentration-inhibition curve) in the data set on HBeAg is 5.96 µM; with HBsAg, 8.21 µM. Also, in data set [1], the 50% cytotoxic concentration (CC50) (usually the concentration giving 50% cytotoxicity) at 144 h is 94.1 µM.

For the compound `CCNC(=O)NC1CC2(C1)CN(c1nc3cc(Cl)ccc3o1)C2` [Example 24, 1-[2-(5-Chloro-1,3-benzoxazol-2-yl)-2-azaspiro[3.3]heptan-6-yl]-3-ethyl-urea], the figures for the IC50 in the data set on HBeAg and with HBsAg were 8.31 µM and 7.29 µM, respectively. In addition, the cytotoxic concentration (CC50) at 144 h in data set [1] is greater than 100 µM.

As for `O=C(NC1CC2CN(c3nc4cc(Cl)ccc4o3)CC2C1)C1CCS(=O)(=O)C1` (stereo not drawn) [Example 124, N-[2-(5-chloro-1,3-benzoxazol-2-yl)-3,3a,4,5,6,6a-hexahydro-1H-cyclopenta[c]pyrrol-5-yl]-1,1-dioxo-thiolane-3-carboxamide], the IC50 with HBeAg amounted to 13 µM; in the data set with HBsAg it was 6.59 µM. In data set [1], this compound had a CC50 at 144 h greater than 100 µM.

In the case of `C[S+]([O-])c1ccc(C(=O)NC2CC3(C2)CN(c2nc4cc(Cl)ccc4o2)C3)o1` (stereo not drawn) [Example 64, N-[2-(5-chloro-1,3-benzoxazol-2-yl)-2-azaspiro[3.3]heptan-6-yl]-5-methylsulfinyl-furan-2-carboxamide], the IC50 was found to be 1.54 µM in the data set on HBeAg and 2.52 µM in the data set with HBsAg. In addition, the CC50 at 144 h in data set [1] was greater than 100 µM.

`O=C(NC1CCC2(CC1)CCN(c1nc3cc(Cl)ccc3o1)CC2)C1CCC(F)(F)C1` (stereo not drawn) [Example 101, N-[3-(5-chloro-1,3-benzoxazol-2-yl)-3-azaspiro[5.5]undecan-9-yl]-3,3-difluoro-cyclopentanecarboxamide]: the IC50 was 4.29 µM in the data set on HBeAg and 4.16 µM in the data set with HBsAg. In data set [1], this compound showed a CC50 at 144 h greater than 100 µM.

`O=C(NC1CCC2(CC1)CCN(c1nc3cc(Cl)ccc3o1)CC2)C1CC2(C1)CS(=O)(=O)C2` [Example 95, N-[3-(5-chloro-1,3-benzoxazol-2-yl)-3-azaspiro[5.5]undecan-9-yl]-2,2-dioxo-2-λ^6-thiaspiro[3.3]heptane-6-carboxamide]: the half-inhibitory concentration (IC50) in the data set with HBeAg worked out at 3.62 µM; with HBsAg, 1.67 µM. This compound returned a cytotoxic concentration (CC50) at 144 h in data set [1] greater than 100 µM.
